≈ marks a conversion by molar mass, not a printed value. Calls of active or inactive are those of the source.

The test system of test [1] is Escherichia coli. The test can be described thus: Ratio of ciprofloxacin MIC to compound MIC for Escherichia coli. The test is classed as functional.
For test [2], the system named is Aspergillus flavus. In words: Ratio of miconazole MIC to compound MIC for Aspergillus flavus. Format: functional.
The test system of test [3] is Candida albicans. The test can be described thus: Ratio of miconazole MIC to compound MIC for Candida albicans. The test is classed as functional.
The test system of test [4] is Fusarium solani. In words: Ratio of miconazole MIC to compound MIC for Fusarium solani. The test is classed as functional.
Test [5] deals with THP-1. The test can be described thus: Antiinflammatory activity in human THP1 cells assessed as inhibition of LPS-induced TNFalpha production at 10 uM treated 30 mins before LPS challenge measured after 24 hrs by ELISA. Format: functional. On the technique in general: An ELISA detects its analyte on a solid surface through an enzyme-linked reagent.
The subject of test [6] is Aspergillus niger. The test can be described thus: Ratio of miconazole MIC to compound MIC for Aspergillus niger. The test is classed as functional.
Test [7] deals with Bacillus subtilis. In words: Antibacterial activity against Bacillus subtilis. Format: functional.
The subject of test [8] is Aspergillus flavus. The test can be described thus: Antifungal activity against Aspergillus flavus. The test is classed as functional.
In test [9] the test system is Staphylococcus aureus. In words: Ratio of ciprofloxacin MIC to compound MIC for Staphylococcus aureus. Format: functional.
For test [10], the system named is Escherichia coli. The test can be described thus: Antibacterial activity against Escherichia coli. The test is classed as functional.
Test [11] concerns Salmonella typhimurium. In words: Antibacterial activity against Salmonella Typhimurium. Format: functional, Salmonella enterica subsp. enterica serovar Typhimurium. The note with it: Salmonella enterica.
Test [12] deals with Candida albicans. The test can be described thus: Antifungal activity against Candida albicans. Format: functional.
Test [13] deals with Salmonella typhimurium. The test can be described thus: Ratio of ciprofloxacin MIC to compound MIC for Salmonella Typhimurium. Format: functional, Salmonella enterica subsp. enterica serovar Typhimurium.
For test [14], the system named is THP-1. In words: Antiinflammatory activity in human THP1 cells assessed as inhibition of LPS-induced IL6 production at 10 uM treated 30 mins before LPS challenge measured after 24 hrs by ELISA. Format: functional.
The subject of test [15] is Aspergillus niger. The test can be described thus: Antifungal activity against Aspergillus niger. The test is classed as functional.
Test [16] relates to Fusarium solani. The test can be described thus: Antifungal activity against Fusarium solani. The test is classed as functional.
Test [17] concerns Bacillus subtilis. In words: Ratio of ciprofloxacin MIC to compound MIC for Bacillus subtilis. The test is classed as functional.
The test system of test [18] is Staphylococcus aureus. In words: Antibacterial activity against Staphylococcus aureus. The test is classed as functional.
Test [19] deals with THP-1. In words: Antiinflammatory activity in human THP1 cells assessed as inhibition of LPS-induced IL6 production at 1 uM treated 30 mins before LPS challenge measured after 24 hrs by ELISA. The test is classed as functional.
Test [20] relates to THP-1. The test can be described thus: Antiinflammatory activity in human THP1 cells assessed as inhibition of LPS-induced TNFalpha production at 1 uM treated 30 mins before LPS challenge measured after 24 hrs by ELISA. The test is classed as functional.
Test [21] deals with Fusarium solani. In words: Antifungal activity against Fusarium solani at 200 ug/ml. The test is classed as functional, organism-based.
Test [22] deals with Escherichia coli. The test can be described thus: Antibacterial activity against Escherichia coli at 200 ug/ml. Format: functional, organism-based.
The subject of test [23] is Aspergillus niger. In words: Antifungal activity against Aspergillus niger at 200 ug/ml. Format: functional, organism-based.
The subject of test [24] is Salmonella typhimurium. The test can be described thus: Antibacterial activity against Salmonella Typhimurium at 200 ug/ml. The test is classed as functional, organism-based. The note with it: Salmonella enterica subsp. enterica serovar Typhimurium.
Test [25] deals with Bacillus subtilis. In words: Antibacterial activity against Bacillus subtilis at 200 ug/ml. The test is classed as functional, organism-based.
The test system of test [26] is Aspergillus flavus. The test can be described thus: Antifungal activity against Aspergillus flavus at 200 ug/ml. Format: functional, organism-based.
For test [27], the system named is Staphylococcus aureus. In words: Antibacterial activity against Staphylococcus aureus at 200 ug/ml. The test is classed as functional, organism-based.
Test [28] concerns Candida albicans. In words: Antifungal activity against Candida albicans at 200 ug/ml. The test is classed as functional, organism-based.

As for `CCOC(=O)C1=C(C)NC(=S)NC1c1ccc(NC(=O)Nc2ccccc2Cl)cc1` (stereo not drawn), the Ratio was 1.5 in test [1]; 2.5 in test [2]; 2.5 in test [3]; 2.5 in [4]; 2.5 in [6]; 1.5 in test [9]. The Ratio in test [13] and in [17] was 1.5 throughout. Besides, the inhibition (commonly how much of the control response was suppressed) at 10 µM came to 0% in [5] and 43% in test [14]. In addition, the MIC (in general, the smallest concentration in the dilution series that meets the test's criterion for growth inhibition) in test [7] is 20 µg/mL (≈ 44.9 µM); in [8], 30 µg/mL (≈ 67.4 µM); in test [10], 10 µg/mL (≈ 22.5 µM); in test [11], 40 µg/mL (≈ 89.9 µM); in test [12] it was 10 µg/mL (≈ 22.5 µM); in test [15] it was 15 µg/mL (≈ 33.7 µM). The results for the minimum inhibitory concentration (MIC) in test [16] and in test [18] were 15 µg/mL (≈ 33.7 µM) and 10 µg/mL (≈ 22.5 µM), respectively.
For the compound `C[C@@H]1C[C@H]2[C@@H]3CCC4=CC(=O)C=C[C@]4(C)[C@@]3(F)[C@@H](O)C[C@]2(C)[C@@]1(O)C(=O)CO` [DEXAMETHASONE], the inhibition at 1 µM in test [19] was determined as 84%; in [20] it was 71%.
In the case of `CCOC(=O)C1=C(C)NC(=S)NC1c1ccc(NC(=O)Nc2ccc(F)c(C)c2)cc1` (stereo not drawn), the result in test [21] and in [22] was inactive. In addition, the inhibition at 10 µM worked out at 0% in test [5] and 16% in test [14]. Further, the MIC came to 90 µg/mL (≈ 203 µM) in test [7]; 95 µg/mL (≈ 215 µM) in test [8]; 90 µg/mL (≈ 203 µM) in test [11]; 80 µg/mL (≈ 181 µM) in test [12]; 95 µg/mL (≈ 215 µM) in test [15]; 65 µg/mL (≈ 147 µM) in [18].
Take `CCOC(=O)C1=C(C)NC(=S)NC1c1ccc(NC(=O)Nc2ccc(F)c(Cl)c2)cc1` (stereo not drawn): the values for the inhibition at 10 µM in [5] and in test [14] were 3% and 40%, respectively. For the same compound, the outcome in [23], in test [24], in test [25] and in test [26] was inactive. The MIC came to 85 µg/mL (≈ 184 µM) in test [10], 80 µg/mL (≈ 173 µM) in test [12], 95 µg/mL (≈ 205 µM) in test [16] and 60 µg/mL (≈ 130 µM) in [18].
`CCOC(=O)C1=C(C)NC(=S)NC1c1ccc(NC(=O)Nc2cc(F)cc(F)c2)cc1` (stereo not drawn): the result in test [21], in [22], in test [23], in [24], in [25] and in test [26] was inactive. The inhibition at 10 µM in [5] stood at 62%; in test [14], 86%. Besides, the MIC in test [12] is 95 µg/mL (≈ 213 µM); in test [18] it was 90 µg/mL (≈ 202 µM).
As for `CCCCc1ccc(NC(=O)Nc2ccc(C3NC(=S)NC(C)=C3C(=O)OCC)cc2)cc1` (stereo not drawn), the result in test [21], in test [23], in [24], in test [27], in test [25] and in test [28] was inactive. Besides, the result in test [26] was inactive. The inhibition at 10 µM worked out at 0% in test [5] and 10% in [14]. This compound also registered an MIC in test [10] of 95 µg/mL (≈ 204 µM).
Turning to `CCOC(=O)C1=C(C)NC(=S)NC1c1ccc(NC(=O)Nc2ccccc2F)cc1` (stereo not drawn), the Ratio in test [1] is on record as 1.5; in test [2] it was 2.5; in [3], 2.5; in test [4], 2.5; in test [6], 2.5; in test [9], 1.5. Moreover, the Ratio in test [13] and in test [17] was 1.5 each time. For the same compound, the inhibition at 10 µM was 0% in test [5] and 40% in test [14]. In addition, the MIC in [7] is 15 µg/mL (≈ 35 µM); in test [8] it was 10 µg/mL (≈ 23.3 µM); in test [10] it was 10 µg/mL (≈ 23.3 µM); in test [11], 40 µg/mL (≈ 93.4 µM); in [12] it was 10 µg/mL (≈ 23.3 µM); in test [15], 10 µg/mL (≈ 23.3 µM). Besides, the results for the MIC in test [16] and in test [18] were 15 µg/mL (≈ 35 µM) and 10 µg/mL (≈ 23.3 µM), respectively.
Regarding `CCOC(=O)C1=C(C)NC(=S)NC1c1ccc(NC(=O)Nc2ccc(C)c(C)c2)cc1` (stereo not drawn), the result in [21], in test [22], in [23], in [24] and in test [26] was inactive. Further, the inhibition at 10 µM in test [5] is 0%; in [14] it was 2%. Moreover, the MIC in test [7] was determined as 95 µg/mL (≈ 217 µM); in [12] it was 95 µg/mL (≈ 217 µM); in test [18], 90 µg/mL (≈ 205 µM).
In the case of `CCOC(=O)C1=C(C)NC(=S)NC1c1ccc(NC(=O)Nc2cccc(C(F)(F)F)c2)cc1` (stereo not drawn), the inhibition at 10 µM was determined as 0% in test [5] and 11% in test [14]. Besides, the MIC in test [7] amounted to 55 µg/mL (≈ 115 µM); in [8], 15 µg/mL (≈ 31.3 µM); in test [10] it was 20 µg/mL (≈ 41.8 µM); in [11], 40 µg/mL (≈ 83.6 µM); in test [12], 25 µg/mL (≈ 52.2 µM); in test [15] it was 20 µg/mL (≈ 41.8 µM). The values for the MIC in [16] and in test [18] were 15 µg/mL (≈ 31.3 µM) and 40 µg/mL (≈ 83.6 µM), respectively.
For `CCOC(=O)C1=C(C)NC(=S)NC1c1ccc([N+](=O)[O-])cc1` (stereo not drawn), the inhibition at 10 µM was found to be 0% in test [5] and 8% in [14]. Besides, the MIC in test [7] came to 45 µg/mL (≈ 140 µM); in [8], 60 µg/mL (≈ 187 µM); in test [10], 30 µg/mL (≈ 93.4 µM); in [11], 50 µg/mL (≈ 156 µM); in [12], 30 µg/mL (≈ 93.4 µM); in [15], 50 µg/mL (≈ 156 µM). The MIC in [16] is 60 µg/mL (≈ 187 µM); in test [18], 35 µg/mL (≈ 109 µM).

The values above are taken from ChEMBL document CHEMBL1806424, “The novel 3,4-dihydropyrimidin-2(1H)-one urea derivatives of N-aryl urea: synthesis, anti-inflammatory, antibacterial and antifungal activity evaluation” (2011).
